# Test results as given in patent publication US9187539B2, “Compositions having antiangiogenic activity and uses thereof” (The Johns Hopkins University, priority 2005, dated 2015).
# Columns and labels:
# [1] = tested on: human umbilical vein endothelial cells (HUVECs); assay: HUVEC proliferation assay (WST-1), 2- and 4-day, 5,000 cells per well; type: cell-based
# Description: The effect of the various peptides on cell proliferation was assayed, by administering the peptides to human umbilical vein endothelial cells (HUVECs) in culture. 45 peptides belonging to four distinct families of proteins including the thrombospondin-1 containing proteins, the C-X-C chemokines, collagen derived peptides and peptides from tissue inhibitors of metalloproteinases were tested. The potency of each of the peptides was tested using the proliferation assay at 2 days and 4 days following administration of the peptides and a similar assay using a different cell density at 3 days. In the four-day experiments, the cell medium was changed after the second day of incubation and the peptide was replaced at the initial concentration together with the medium. TNP-470 is an antiangiogenic compound that was used as a positive control for assessing anti-angiogenic efficacy. The activity of each polypeptide was, therefore, expressed as a percentage of TNP-470 activity, i.e., the optical density obtained experimentally is scaled such that the negative control is 0% and the positive control is 100% as explained below (FIG. 4). Each plate included a well having HUVEC cells that received 0.1 μg/ml TNP-470. For example, a peptide having the same effect on endothelial cell proliferation would have 100% of the activity of TNP-470. Note that activity could exceed 100%. In this assay, the effects of the predicted anti-angiogenic fragments on the ability of HUVECs to proliferate was characterized. […] A commonly used methodology to test for proliferation is to monitor the viability and metabolic activity of endothelial cells, in the presence of the anti-angiogenic fragments at different concentrations and various time steps. The cell proliferation reagent WST-1 was used as a substrate/assay to measure the metabolic activity of viable cells. WST-1 is a colorimetric, non-radioactive assay and can be performed in a microplate. It is suitable for measuring cell proliferation, cell viability or cytotoxicity. The assay is based on the reduction a red tetrazolium salt, WST-1, by viable, metabolically active, cells to form the yellow formazan crystals soluble in the cell medium. […] The cells are cultured described above. Once cells have reached 80% confluence they are trypsinized and resuspended in EGM-2. The cell density is estimated using a hemocytometer. All of the endothelial cells used were from passage 4 to passage 8. The proliferation assay involved two steps. During the first step the cells, approximately 5,000 cells per well for a 96-well plate, were seeded without any extracellular matrix substrate on the wells overnight (8 hours). The initial cell culture medium was removed using a multichannel pipetor and the candidate peptides were applied. A logarithmic scale of four different concentrations of 0.01 μg/ml, 0.1 μg/ml, 1 μg/ml and 10 μg/ml of each peptide was used. Each of the concentrations was tested in quadruplicate. The viability of the cells was challenged at 2 and 4 days upon the application of the peptide. As a positive control for decreased viability, 0.1 μg/ml of TNP-470 (O-(chloro-acetyl-carbamoyl) fumagillol, a synthetic analogue of fumagillin; TNP-470 was provided by NCI, was provided along with the medium, and as a negative control for normal viability, the cells were cultured without the addition of any agent. The cells were then incubated with 10 μl per well of the red WST-1 reagent for approximately 2 to 4 hours. During this incubation period, viable cells converted, in their mitochondria, the red WST-1 to the yellow formazan crystals which dissolve in the medium. The second step of the assay involved the quantification of the changes in proliferation which was performed by measuring the change in color after lysing the cells. The samples were read using the ELISA plate reader Victor3 V (Perkin Elmer) at a wavelength of […]. The amount of color produced is directly proportional to the number of viable cells. […]
# [2] = tested on: angiogenesis (endothelial cell invasion of basement membrane extract with bFGF and VEGF); assay: Directed in vivo angiogenesis assay (DIVAA), subcutaneously implanted angioreactors; design: species or system C57BL/6 mice; conditions: 200 μg/ml peptide with bFGF and VEGF in the matrix; 11 days after implantation
# Description: A directed in vivo anti-angiogenesis assay (DIVAA) was used to test the anti-angiogenic efficacy of the alpha 5 fibril of collagen type 4, which had the sequence: SAPFIECHGRGTCNYYANS (SEQ ID NO: 91). […] The peptide was solubilized in buffer solution at 200 μg/ml without an organic solvent. DIVAA is a reproducible and quantitative in-vivo method of assaying angiogenesis. It involves preparation of silicon cylinders of 20 μl volume, closed on one side, filled with some type of extracellular matrix (for example Matrigel or BME-basement membrane extract) with or without premixed angiogenic factors. These angioreactors are then implanted subcutaneously in the dorsal flank of mice. Accompanied with the onset of angiogenesis, vascular endothelial cells migrate into the extracellular matrix and form vessels in the angioreactor. […]
# To obtain a quantitative assessment of the angiogenic invasion, the content of the angioreactors was removed from the cylinder and the endothelial cells were stained using FITC-Lectin (FIG. 38A) Once the tubes were extracted from the mice, the inside of the angioreactors was rinsed with 300 μl of a 36 kDa, bacillus-derived neutral metalloproteinase which is commercially available as Cellsperse (Trevigen, Inc., Gaithersburg, Md.), an extracellular matrix digesting solution and the content of the reactors as well as the rinse was transferred into a microtube. […]
# [3] = tested on: human umbilical vein endothelial cells (HUVECs); assay: HUVEC proliferation assay (WST-1), 3-day, 2,000 cells per well; type: cell-based; conditions: 3-day assay
# Description: In addition to the 2 and 4 day proliferation experiment where 5,000 cells per well were seeded, the effects of the peptides on the proliferating ability of HUVECs were also studied using cells seeded at a density of 2,000 cells per well. This lower cell seeding density allowed the experiment to be extend for an additional day without changing the cell medium. The effects of the peptides when applied to the cells for 3 consecutive days is also reported herein. The proliferation assay again involved two steps. During the first step 2,000 cells per well for a 96-well plate were seeded without any extracellular matrix substrate on the wells overnight (8 hours). The initial cell culture medium was removed using a multichannel pipetor. To synchronize the cells, the cells were serum starved for 4 hours and the candidate peptides were applied. During serum starvation the cell culture medium was changed from a “full” medium to the “basal” medium, which contained no growth factors or serum. Serum starvation for 4 hours had no effect on the proliferation of the cells. For this assay, the logarithmic scale of four different concentrations of 0.01 μg/ml, 0.1 μg/ml, 1 μg/ml and 10 μg/ml of peptide was used. In addition, a larger concentration of 30 μg/ml peptide was also applied. Each of the concentrations was again tested in quadruplicate. After the third day of peptide application the WST-1 dye was applied for approximately 2 to 4 hours (usually after 3 hours the color saturates). The proliferation was later tested on the ELISA plate reader as described for the 2 and 4 day assay. Note that the 2- and 4-day and the 3-day protocols differed in that 5,000 cells/well versus 2,000 cells/well seeded, respectively.
Sequence,"anti-proliferative activity in words ([1]; 2- and 4-day assay, overall)",endothelial cell invasion of the extracellular matrix in angioreactors [2],inhibition of angiogenesis in angioreactors [2],anti-proliferative activity in words at high peptide concentration ([3]; high/highest applied concentration (30 μg/ml where stated)),"anti-proliferative activity (maximum or stated level), scaled so that TNP-470 = 100% ([1]; 4 days of peptide application, 0.01-10 μg/ml) [%]","anti-proliferative activity, TNP-470 = 100% ([3]; 30 μg/ml peptide) [%]"
"SAPFIECHGRGTCNYYANS [SEQ ID NO: 91, α5CIV AAC27816.1: 1626-1644]",low activity,Fewer endothelial cells invaded the extracellular matrix,strongly inhibited angiogenesis,activity increases,–,–
"YCNINEVCHYARRNDKSYWL [SEQ ID NO: 93, α6CIV CAI40758.1: 1526-1545]",–,–,–,–,15,80
